Source: paper PMC7932521, “2-aminobenzimidazoles for leishmaniasis: From initial hit discovery to in vivo profiling” (PLoS Neglected Tropical Diseases, 2021)

test system: Leishmania infantum MHOM/MA(BE)/67/ITMAP263 amastigotes; test: L. infantum intracellular amastigote assay in PMM; assay type: cell-based; conditions: CC50 / L. infantum IC50
Experimental: (§1) Leishmania infantum MHOM/MA(BE)/67/ITMAP263 amastigotes were collected from the spleen of infected donor Golden hamsters. Primary peritoneal mouse macrophages (PMM) were used as host cells for in vitro assays. PMM were collected from Swiss mice after 2 days of peritoneal stimulation with a 2% suspension of potato starch and maintained in RPMI-1640 medium supplemented with 200 mM L-glutamine, antibiotics and 5% FCS at 37°C and 5% CO2. Promastigotes of L. infantum chagasi (luciferase) (MHOM/BR/2005/NLC) obtained as described in Reimão et al.,[27] were grown in M199 medium supplemented with 10% FCS, 0.25% hemin, 32 μg/ml hygromycin and 2% sterile human urine at 25°C and 5% CO2.
(§2) Stock solutions of the compounds at 20 mM were prepared in 100% DMSO. Next, the compounds were serially pre-diluted in DMSO followed by a further dilution in demineralized water to assure a final in-test DMSO concentration below 1%. The compounds were tested at 4-fold dilutions starting at 64 μM.
For the antileishmania in vitro assays, 3×10^4 PMM/well were seeded in 96-well plates. After 24h, 5×10^5 amastigotes/well were added and incubated for 2h at 37°C. Next, the compounds in 4-fold serial dilutions were added and the plates were further incubated for 5 days (37°C, 5% CO2). Parasite burdens were assessed using an inverted microscope after Giemsa staining. The results were expressed as percent reduction in parasite burdens compared to negative control wells (100% growth) and IC50 values were determined. Values represent the geometric mean of at least two independent experiments. Miltefosine was used as the positive control in all plates.

Q: Which “SI: selectivity index (CC50 / IC50)” value does the source give for `Cn1nccc1C(=O)Nc1nc2ccc(C#N)cc2n1CCF` [Compound 48, FCCn1c(cc(C#N)cc2)c2nc1NC(c3ccnn3C)=O] here?
A: 1

Q: Which “SI: selectivity index (CC50 / IC50)” value does the source give for `Cn1nccc1C(=O)Nc1nc2ccc(C#N)cc2n1C1CCOCC1` [Compound 32, O=C(c1ccnn1C)Nc2nc(ccc(C#N)c3)c3n2C4CCOCC4] here?
A: 1

Q: Which “SI: selectivity index (CC50 / IC50)” value does the source give for `CCCn1c(NC(=O)Cc2ccc(F)cc2)nc2ccc(C#N)cc21` [Compound 8, n1c(c2n(CCC)c1NC(=O)Cc3ccc(F)cc3)ccc(C#N)c2] here?
A: 1

same assay, conditions: Leishmania infantum, 120 h, intracellular amastigotes in PMM, 5 days; read-out: L. infantum IC50

Q: With `O=C(Cc1ccc(F)cc1)Nc1nc2cc(F)ccc2n1C1CCOCC1` [Compound 28, Fc1cc(nc(NC(=O)Cc2ccc(F)cc2)n3C4CCOCC4)c3cc1] as the molecule, how does the IC50 read?
A: 13 µM

Q: For `Cn1nccc1C(=O)Nc1nc2ccc(C#N)cc2n1CCF` [Compound 48, FCCn1c(cc(C#N)cc2)c2nc1NC(c3ccnn3C)=O], which IC50 is on record?
A: 28 µM

Q: Which IC50 does the source give for `CCCn1c(NC(=O)Cc2ccc(F)cc2)nc2ccc(C#N)cc21` [Compound 8, n1c(c2n(CCC)c1NC(=O)Cc3ccc(F)cc3)ccc(C#N)c2] here?
A: 46 µM

same assay, conditions: Leishmania infantum, S1 Data; read-out: L. infantum IC50

Q: With `O=C(Cc1ccc(F)cc1)Nc1nc2cc(F)ccc2n1C1CCOCC1` [Compound 28, Fc1cc(nc(NC(=O)Cc2ccc(F)cc2)n3C4CCOCC4)c3cc1] as the molecule, how does the IC50 read?
A: 12.7 µM

Q: Which IC50 does the source give for `Cn1nccc1C(=O)Nc1nc2ccc(C#N)cc2n1CCF` [Compound 48, FCCn1c(cc(C#N)cc2)c2nc1NC(c3ccnn3C)=O] here?
A: 27.9 µM

Q: With `Cn1nccc1C(=O)Nc1nc2ccc(C#N)cc2n1C1CCOCC1` [Compound 32, O=C(c1ccnn1C)Nc2nc(ccc(C#N)c3)c3n2C4CCOCC4] as the molecule, how does the IC50 read?
A: > 64 µM

Q: Which IC50 does the source give for `CCCn1c(NC(=O)Cc2ccc(F)cc2)nc2ccc(C#N)cc21` [Compound 8, n1c(c2n(CCC)c1NC(=O)Cc3ccc(F)cc3)ccc(C#N)c2] here?
A: 45.6 µM

test system: PMM (Primary Mouse Macrophages); test: Cytotoxicity on primary peritoneal mouse macrophages; assay type: cell-based; conditions: Mus musculus, Macrophage, read-out: PMM IC50
Experimental: as §1, §2

Q: For `O=C(Cc1ccc(F)cc1)Nc1nc2cc(F)ccc2n1C1CCOCC1` [Compound 28, Fc1cc(nc(NC(=O)Cc2ccc(F)cc2)n3C4CCOCC4)c3cc1], which IC50 is on record?
A: > 64 µM

Q: With `Cn1nccc1C(=O)Nc1nc2ccc(C#N)cc2n1CCF` [Compound 48, FCCn1c(cc(C#N)cc2)c2nc1NC(c3ccnn3C)=O] as the molecule, how does the IC50 read?
A: 32 µM

Q: For `Cn1nccc1C(=O)Nc1nc2ccc(C#N)cc2n1C1CCOCC1` [Compound 32, O=C(c1ccnn1C)Nc2nc(ccc(C#N)c3)c3n2C4CCOCC4], which IC50 is on record?
A: > 64 µM

Q: With `CCCn1c(NC(=O)Cc2ccc(F)cc2)nc2ccc(C#N)cc21` [Compound 8, n1c(c2n(CCC)c1NC(=O)Cc3ccc(F)cc3)ccc(C#N)c2] as the molecule, how does the IC50 read?
A: 45.2 µM

test system: not listed separately; test: MRC-5 cytotoxicity; assay type: cell-based; conditions: human, MRC-5 cells; S1 Data

Q: Which CC50 does the source give for `O=C(Cc1ccc(F)cc1)Nc1nc2cc(F)ccc2n1C1CCOCC1` [Compound 28, Fc1cc(nc(NC(=O)Cc2ccc(F)cc2)n3C4CCOCC4)c3cc1] here?
A: > 64 µM

Q: For `Cn1nccc1C(=O)Nc1nc2ccc(C#N)cc2n1CCF` [Compound 48, FCCn1c(cc(C#N)cc2)c2nc1NC(c3ccnn3C)=O], which CC50 is on record?
A: 13.7 µM

Q: For `Cn1nccc1C(=O)Nc1nc2ccc(C#N)cc2n1C1CCOCC1` [Compound 32, O=C(c1ccnn1C)Nc2nc(ccc(C#N)c3)c3n2C4CCOCC4], which CC50 is on record?
A: > 64 µM

Q: Which CC50 does the source give for `CCCn1c(NC(=O)Cc2ccc(F)cc2)nc2ccc(C#N)cc21` [Compound 8, n1c(c2n(CCC)c1NC(=O)Cc3ccc(F)cc3)ccc(C#N)c2] here?
A: > 64 µM

test system: not listed separately; test: Experimental distribution coefficient (eLogD); assay type: physicochemical; conditions: experimental, pH 7.4
Experimental: To determine the lipophilicity of the compounds, a methodology based on the retention time of molecules in reverse stationary phase (Ascentis RP-Amide HPLC column) was used. The chromatogram was obtained using LC-MS/MS. Test compounds were prepared at 1.0 μg/mL by adding the stock solution at (1:1) mobile phases A:B + internal standard at 200nM (A: 5% methanol in 10mM ammonium acetate pH 7.4, B: 100% methanol), DMSO concentration must be lower than 2%. […] The retention time (in minutes) of each of the eight standards was plotted against their LogD values. The resulting equation for the calibration curve (y = mx + b) was used to calculate the LogD values for the test compounds.

Q: With `CCCn1c(NC(=O)Cc2ccc(F)cc2)nc2ccc(C#N)cc21` [Compound 8, n1c(c2n(CCC)c1NC(=O)Cc3ccc(F)cc3)ccc(C#N)c2] as the molecule, how does the eLogD read?
A: 3.6

same assay, conditions: reverse stationary phase HPLC column (Ascentis RP-Amide), pH 7.4; S1 Data

Q: With `O=C(Cc1ccc(F)cc1)Nc1nc2cc(F)ccc2n1C1CCOCC1` [Compound 28, Fc1cc(nc(NC(=O)Cc2ccc(F)cc2)n3C4CCOCC4)c3cc1] as the molecule, how does the chromatographic logD read?
A: 3.32

Q: Which chromatographic logD does the source give for `Cn1nccc1C(=O)Nc1nc2ccc(C#N)cc2n1C1CCOCC1` [Compound 32, O=C(c1ccnn1C)Nc2nc(ccc(C#N)c3)c3n2C4CCOCC4] here?
A: 2.32

Q: With `CCCn1c(NC(=O)Cc2ccc(F)cc2)nc2ccc(C#N)cc21` [Compound 8, n1c(c2n(CCC)c1NC(=O)Cc3ccc(F)cc3)ccc(C#N)c2] as the molecule, how does the chromatographic logD read?
A: 3.6

same assay, conditions: reverse-phase HPLC retention (Ascentis RP-Amide column); experimental, pH 7.4

Q: With `Cn1nccc1C(=O)Nc1nc2ccc(C#N)cc2n1C1CCOCC1` [Compound 32, O=C(c1ccnn1C)Nc2nc(ccc(C#N)c3)c3n2C4CCOCC4] as the molecule, how does the chromatographic logD read?
A: 2.3

test system: not listed separately; test: Mouse liver microsomal stability; assay type: in vitro ADME; conditions: CD1, mouse, liver microsomes, pH 7.4, S1 Data; read-out: MLM CLint
Experimental: The metabolic stability of the compounds was evaluated in human (pool of 200 donors, XenoTech) and mouse liver microsomes (CD1 mouse, GIBCO). Test compounds were prepared at a concentration of 0.5 μM and incubated with 0.25 mg/mL liver microsomes at pH 7.4 and 37°C. The reaction was started by addition of NADPH at […]. Samples were taken at 0, 5, 10, 15, 20 and 30 minutes. The reaction was stopped by the addition of acetonitrile:methanol (1:1) containing an internal standard (tolbutamide at 50 nM). Compounds were quantified by liquid chromatography triple quadrupole mass spectrometry (LC-MS/MS). Peak area ratios (analyte/internal standard) were converted to % remaining using the area ratio at time 0 as 100%. Half-life (t1/2 = ln(2)/k) in minutes and intrinsic clearance (Clint = k x 1000/(0.25)) in μL/min/mg were calculated using a non-linear regression from % remaining versus incubation time. From this plot, the slope (k) was determined. The analysis conditions were: analytical column (Gemini C18, […], Phenomenex), electrospray ionization source (ESI) in positive and negative mode, mobile phase A (water + 0.1% formic acid) and B (acetonitrile + 0.1% formic acid), flow rate of 0.7 mL/min.

Q: Which microsomal CLint at 0.5 μM does the source give for `O=C(Cc1ccc(F)cc1)Nc1nc2cc(F)ccc2n1C1CCOCC1` [Compound 28, Fc1cc(nc(NC(=O)Cc2ccc(F)cc2)n3C4CCOCC4)c3cc1] here?
A: 133 µL/min/mg

Q: With `Cn1nccc1C(=O)Nc1nc2ccc(C#N)cc2n1C1CCOCC1` [Compound 32, O=C(c1ccnn1C)Nc2nc(ccc(C#N)c3)c3n2C4CCOCC4] as the molecule, how does the microsomal CLint at 0.5 μM read?
A: < 23 µL/min/mg

Q: For `CCCn1c(NC(=O)Cc2ccc(F)cc2)nc2ccc(C#N)cc21` [Compound 8, n1c(c2n(CCC)c1NC(=O)Cc3ccc(F)cc3)ccc(C#N)c2], which microsomal CLint at 0.5 μM is on record?
A: 226 µL/min/mg

same assay, conditions: CD1, mouse, liver microsomes, pH 7.4, mouse liver microsome intrinsic clearance; read-out: MLM Clint

Q: Which microsomal CLint at 0.5 μM does the source give for `Cn1nccc1C(=O)Nc1nc2ccc(C#N)cc2n1C1CCOCC1` [Compound 32, O=C(c1ccnn1C)Nc2nc(ccc(C#N)c3)c3n2C4CCOCC4] here?
A: 23 µL/min/mg

Q: With `CCCn1c(NC(=O)Cc2ccc(F)cc2)nc2ccc(C#N)cc21` [Compound 8, n1c(c2n(CCC)c1NC(=O)Cc3ccc(F)cc3)ccc(C#N)c2] as the molecule, how does the microsomal CLint at 0.5 μM read?
A: 225 µL/min/mg

same assay, conditions: S1 Data

Q: Which “MLM CLint” value does the source give for `Cn1nccc1C(=O)Nc1nc2ccc(C#N)cc2n1CCF` [Compound 48, FCCn1c(cc(C#N)cc2)c2nc1NC(c3ccnn3C)=O] here?
A: 154 µL/min/mg

test system: not listed separately; test: Parallel artificial membrane permeability assay (PAMPA); assay type: in vitro ADME; conditions: PAMPA, S1 Data; read-out: PAMPA Pe
Experimental: To determine the passive permeability of the compounds, a 96-well plate containing membranes pre-coated with lipids (Corning Gentest # 353015) was used. The solutions of the compounds were prepared by diluting the stock solutions (10mM) in phosphate buffered saline (PBS) pH 6.5 at a final concentration of 10μM. The solutions diluted in PBS pH 6.5 were then added to the donor portion of the plate (300 μl/well), while PBS pH 7.4 (200 μl/well) was added to the acceptor portion. The two portions of the plate were then coupled, and the system was incubated for 5 h at 37°C. At the end of the incubation, samples were collected from the donor and acceptor plates, and then added to plates containing quench solution (10% water and 90% methanol: acetonitrile (50:50) + 50 nM tolbutamide). The final concentrations of compounds in the donor, acceptor, and initial solution (T0) wells were analyzed using LC-MS/MS. The results were used to calculate an effective permeability (Pe) value. The PAMPA assay was performed in triplicate (n = 3).

Q: For `O=C(Cc1ccc(F)cc1)Nc1nc2cc(F)ccc2n1C1CCOCC1` [Compound 28, Fc1cc(nc(NC(=O)Cc2ccc(F)cc2)n3C4CCOCC4)c3cc1], which Papp at 5 h, 10 μM is on record?
A: 19.6 ×10⁻⁶ cm/s

Q: Which Papp at 5 h, 10 μM does the source give for `Cn1nccc1C(=O)Nc1nc2ccc(C#N)cc2n1CCF` [Compound 48, FCCn1c(cc(C#N)cc2)c2nc1NC(c3ccnn3C)=O] here?
A: 63.7 ×10⁻⁶ cm/s

Q: Which Papp at 5 h, 10 μM does the source give for `Cn1nccc1C(=O)Nc1nc2ccc(C#N)cc2n1C1CCOCC1` [Compound 32, O=C(c1ccnn1C)Nc2nc(ccc(C#N)c3)c3n2C4CCOCC4] here?
A: 11 ×10⁻⁶ cm/s

Q: Which Papp at 5 h, 10 μM does the source give for `CCCn1c(NC(=O)Cc2ccc(F)cc2)nc2ccc(C#N)cc21` [Compound 8, n1c(c2n(CCC)c1NC(=O)Cc3ccc(F)cc3)ccc(C#N)c2] here?
A: 30.7 ×10⁻⁶ cm/s
